Reference: PubChem BioAssay (NCI)
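Cultured in 96-well plates, cells were exposed to test compound for 48 hours across five concentrations. Here, GI50 denotes the concentration required for 50% inhibition of growth. Definition used: TGI = concentration required for complete inhibition of growth.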

Key:
Experiment in all cases: NCI tumour cell line growth inhibition, 48 h
KM12 colon = system: KM12 colon
CCRF-CEM leukemia = system: CCRF-CEM leukemia
U251 CNS = system: U251 CNS
NCI-H23 lung = system: NCI-H23 lung
SK-MEL-5 melanoma = system: SK-MEL-5 melanoma
UACC-257 melanoma = system: UACC-257 melanoma
IGROV1 ovarian = system: IGROV1 ovarian
SK-MEL-28 melanoma = system: SK-MEL-28 melanoma
SK-MEL-2 melanoma = system: SK-MEL-2 melanoma
MDA-MB-231 breast = system: MDA-MB-231 breast

| Structure (SMILES) | TGI (KM12 colon) [µM] | TGI (CCRF-CEM leukemia) [µM] | TGI (U251 CNS) [µM] | TGI (NCI-H23 lung) [µM] | TGI (SK-MEL-5 melanoma) [µM] | TGI (UACC-257 melanoma) [µM] | TGI (IGROV1 ovarian) [µM] | TGI (SK-MEL-28 melanoma) [µM] | TGI (SK-MEL-2 melanoma) [µM] | TGI (MDA-MB-231 breast) [µM] | GI50 (KM12 colon) [µM] | GI50 (CCRF-CEM leukemia) [µM] | GI50 (U251 CNS) [µM] | GI50 (SK-MEL-2 melanoma) [µM] | GI50 (SK-MEL-5 melanoma) [µM] | GI50 (UACC-257 melanoma) [µM] | GI50 (IGROV1 ovarian) [µM] | GI50 (SK-MEL-28 melanoma) [µM] | GI50 (MDA-MB-231 breast) [µM] | GI50 (NCI-H23 lung) [µM] |
| --- | --- | --- | --- | --- | --- | --- | --- | --- | --- | --- | --- | --- | --- | --- | --- | --- | --- | --- | --- | --- |
| CN(C)CC/C(=N\Nc1ccc(Cl)c(Cl)c1)c1ccccc1 | 3.92 | 6.18 | 3.28 | 3.67 | 3.43 | 9.61 | 5.68 | 6.43 | – | – | – | – | – | – | – | – | – | – | – | – |
| NC(CSc1nc2ccccn2c1[N+](=O)[O-])C(=O)O (stereo not drawn) | > 100 | – | > 100 | > 100 | > 100 | > 100 | > 100 | > 100 | > 100 | > 100 | – | – | – | – | – | – | – | – | – | – |
| COc1cc(/C=C/c2ccc(OC(C)=O)cc2)cc(OC)c1OC | > 100 | > 100 | > 100 | – | 34.6 | > 100 | > 100 | > 100 | – | – | – | – | – | – | – | – | – | – | – | – |
| COc1cc2ccnc3c2c(c1OC)-c1ccc(=O)ccc1-3 | > 100 | 41.7 | 96.9 | – | 47.9 | 63.5 | > 100 | 66.9 | > 100 | > 100 | 43.6 | 13.7 | 27.6 | 52.6 | 17.1 | 25.4 | 47 | 23.7 | 26.9 | – |
| COc1ccc2nc(NC(=O)C(=O)C(C(=O)c3ccccc3-c3ccccc3)C3OC(=O)c4ccccc43)sc2c1 (stereo not drawn) | 54.9 | > 100 | 25.9 | 30.5 | 31.1 | > 100 | 71.7 | 51 | 28 | – | – | – | – | – | – | – | – | – | – | – |
| NC(=S)NNC(=O)CCC(=O)Nc1ccc(Cl)cc1Cl | > 100 | > 100 | > 100 | > 100 | > 100 | > 100 | > 100 | > 100 | > 100 | – | – | – | – | – | – | – | – | – | – | – |
| Cc1ccccc1-c1c(N)nc(N)nc1C(=O)Nc1nccs1 | > 100 | > 100 | > 100 | > 100 | > 100 | > 100 | > 100 | > 100 | > 100 | – | – | – | – | – | – | – | – | – | – | – |
| CCC[CH2][Ge]([CH2]CCC)([CH2]CCC)[O]C(=O)C(O)c1ccccc1 (stereo not drawn) | 17.4 | 25.7 | 20.3 | 9.91 | 13.2 | 15.5 | 30.6 | 29.8 | – | – | 2.96 | 0.207 | 2.32 | – | 1.46 | 1.08 | 9.44 | 12.7 | – | 0.366 |
| O=C(NC(=S)NNC(=S)NNc1ccccc1)c1ccccc1 | > 100 | > 100 | > 100 | – | > 100 | > 100 | > 100 | > 100 | > 100 | > 100 | 7.09 | 5.33 | 8.36 | 4.11 | 3.73 | 4.68 | 4.8 | 10.6 | 12.9 | – |
